Data taken from article PMC3914206.

Key:
panel of 442 kinases [1] = biological target: T1, panel of 442 kinases (Homo sapiens, UniProt Q9NQU5); type: binding; settings: Compound Concentration 10 µM
T1 construct: purchased KINOMEscan
Description: (§1) We assessed the selectivity of members of this scaffold using the KINOMEscan methodology across a near comprehensive panel of 442 kinases [[18,27]].

panel of 442 kinases [2] = biological target: T2, panel of 442 kinases (Homo sapiens, UniProt O75716); type: binding; settings: kinase STK16; compound concentration 10 µM
T2 construct: purchased KINOMEscan
T2 sequence (O75716 whole entry): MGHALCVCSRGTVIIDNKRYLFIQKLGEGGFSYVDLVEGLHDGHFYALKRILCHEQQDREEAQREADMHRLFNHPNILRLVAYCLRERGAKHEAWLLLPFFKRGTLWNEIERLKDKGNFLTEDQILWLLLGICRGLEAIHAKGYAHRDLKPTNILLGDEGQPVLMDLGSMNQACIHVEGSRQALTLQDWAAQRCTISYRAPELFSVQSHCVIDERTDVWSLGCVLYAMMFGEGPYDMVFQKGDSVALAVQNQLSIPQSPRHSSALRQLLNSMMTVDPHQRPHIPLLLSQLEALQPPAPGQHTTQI
Description: as §1

T1 sequence (Q9NQU5 whole entry): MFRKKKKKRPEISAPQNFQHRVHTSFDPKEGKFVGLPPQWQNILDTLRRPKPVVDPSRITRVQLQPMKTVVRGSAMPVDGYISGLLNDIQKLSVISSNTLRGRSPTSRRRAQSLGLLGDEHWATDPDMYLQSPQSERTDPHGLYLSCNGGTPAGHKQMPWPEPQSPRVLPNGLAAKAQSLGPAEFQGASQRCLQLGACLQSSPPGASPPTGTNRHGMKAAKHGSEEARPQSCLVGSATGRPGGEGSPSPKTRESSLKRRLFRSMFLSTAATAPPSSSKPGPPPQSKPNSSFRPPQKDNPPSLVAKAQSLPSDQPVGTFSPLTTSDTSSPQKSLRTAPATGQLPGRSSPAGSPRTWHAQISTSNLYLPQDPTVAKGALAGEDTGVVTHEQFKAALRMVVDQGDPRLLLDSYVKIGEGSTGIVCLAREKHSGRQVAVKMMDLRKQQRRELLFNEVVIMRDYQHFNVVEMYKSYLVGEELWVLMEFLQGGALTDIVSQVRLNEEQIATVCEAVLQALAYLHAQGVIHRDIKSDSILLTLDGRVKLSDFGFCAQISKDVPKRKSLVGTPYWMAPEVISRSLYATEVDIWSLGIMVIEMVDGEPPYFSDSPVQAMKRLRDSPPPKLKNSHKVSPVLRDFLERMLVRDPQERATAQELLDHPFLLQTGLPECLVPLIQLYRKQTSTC

Row | Compound | KINOMEscan: PAK6 (panel of 442 kinases [1]) | % Ctrl, STK16 (panel of 442 kinases [2]) [% Ctrl]
1 | COc1cc(C(=O)N2CCC(N3CCN(C)CC3)CC2)ccc1Nc1ncc2c(n1)N(C)c1ccccc1C(=O)N2C [15 (LRRK2-IN-1)] | 98 | 62
2 | CCOc1cc(C(=O)N2CCC(N3CCN(C)CC3)CC2)ccc1Nc1ncc2c(n1)N(C1CCCC1)c1ccccc1C(=O)N2C [Compound 26] | 100 | 99
3 | COc1cc(C(=O)N2CCC(N3CCN(C)CC3)CC2)ccc1Nc1ncc2c(n1)N1CCc3cccc(c31)C(=O)N2C [Compound 24] | – | 50
4 | COc1cc(C(=O)N2CCC(N3CCN(C)CC3)CC2)ccc1Nc1ncc2c(n1)N(C1CCCC1)c1ccccc1C(=O)N2C [Compound 25, 11-cyclopentyl-2-((2-methoxy-4-(4-(4-methylpiperazin-1-yl)piperidine-1-carbonyl)phenyl)amino)-5-methyl-5H-benzo[e]pyrimido[5,4-b][1,4]diazepin-6(11H)-one] | 86 | 75
